Experimental data as given in patent US20230257372A1 (CHONG KUN DANG PHARMACEUTICAL CORP., priority 2020, published 2023).
Like-named read-outs stand apart in the source and are kept apart here.

Legend:
[1] = target: T1, human recombinant HDAC1 (Homo sapiens, UniProt Q13547); test: HDAC1 enzyme activity inhibition (HDAC Fluorimetric Drug Discovery Kit); assay type: biochemical; conditions: read-out: HDAC1
T1 construct: purchased Enzo Life Science, Inc. BML-SE456
Outline: (§1)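 Fluorimetric deacetylase read-out. 5-fold compound dilutions; […] enzyme, 10 μM substrate; 30° C, 60 min; developer 30 min.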

[2] = target: T2, human recombinant HDAC6 (Homo sapiens, UniProt Q9UBN7); test: HDAC6 enzyme activity inhibition (HDAC Fluorimetric Drug Discovery Kit); assay type: biochemical
T2 construct: purchased Calbiochem Inc. 382180
T2 sequence (Q9UBN7 1-1215): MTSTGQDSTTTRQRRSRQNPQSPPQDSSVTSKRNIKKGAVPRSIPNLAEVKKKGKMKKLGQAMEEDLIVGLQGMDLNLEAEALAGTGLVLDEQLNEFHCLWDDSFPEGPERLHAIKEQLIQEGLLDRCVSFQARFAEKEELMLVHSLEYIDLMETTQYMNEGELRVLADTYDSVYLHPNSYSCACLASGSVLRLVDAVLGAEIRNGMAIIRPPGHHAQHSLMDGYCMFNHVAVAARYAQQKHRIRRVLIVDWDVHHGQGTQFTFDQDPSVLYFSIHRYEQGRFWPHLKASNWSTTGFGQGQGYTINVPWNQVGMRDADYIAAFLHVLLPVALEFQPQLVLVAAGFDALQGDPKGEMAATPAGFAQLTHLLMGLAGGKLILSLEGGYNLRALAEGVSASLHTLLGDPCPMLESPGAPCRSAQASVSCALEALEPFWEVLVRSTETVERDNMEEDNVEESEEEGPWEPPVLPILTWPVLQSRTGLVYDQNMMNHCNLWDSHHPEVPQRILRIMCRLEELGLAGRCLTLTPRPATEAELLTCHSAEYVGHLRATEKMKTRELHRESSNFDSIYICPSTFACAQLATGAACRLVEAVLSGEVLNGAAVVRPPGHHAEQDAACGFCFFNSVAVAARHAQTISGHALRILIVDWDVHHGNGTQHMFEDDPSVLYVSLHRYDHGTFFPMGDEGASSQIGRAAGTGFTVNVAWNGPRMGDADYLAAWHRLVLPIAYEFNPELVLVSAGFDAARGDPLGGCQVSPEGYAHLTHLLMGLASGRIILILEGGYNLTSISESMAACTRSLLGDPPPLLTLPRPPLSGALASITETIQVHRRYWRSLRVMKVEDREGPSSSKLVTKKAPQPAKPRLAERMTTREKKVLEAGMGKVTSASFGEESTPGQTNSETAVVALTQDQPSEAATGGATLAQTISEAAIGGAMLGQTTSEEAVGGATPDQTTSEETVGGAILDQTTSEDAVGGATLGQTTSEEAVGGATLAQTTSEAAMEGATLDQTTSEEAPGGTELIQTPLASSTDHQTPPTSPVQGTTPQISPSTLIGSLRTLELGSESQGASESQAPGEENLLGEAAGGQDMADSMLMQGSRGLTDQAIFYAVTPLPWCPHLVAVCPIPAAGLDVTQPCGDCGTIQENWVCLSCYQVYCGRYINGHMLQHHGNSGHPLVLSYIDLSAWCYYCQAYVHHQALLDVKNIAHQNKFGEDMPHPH
Outline: as §1

[3] = human recombinant HDAC1, Fluor de Lys substrate, 30° C. 60 minutes
[4] = human recombinant HDAC6, same protocol as HDAC1
[5] = human recombinant HDAC1, IC50 calculated with GraphPad Prism
[6] = human recombinant HDAC6, IC50 calculated with GraphPad Prism

T1 sequence (Q13547 whole entry): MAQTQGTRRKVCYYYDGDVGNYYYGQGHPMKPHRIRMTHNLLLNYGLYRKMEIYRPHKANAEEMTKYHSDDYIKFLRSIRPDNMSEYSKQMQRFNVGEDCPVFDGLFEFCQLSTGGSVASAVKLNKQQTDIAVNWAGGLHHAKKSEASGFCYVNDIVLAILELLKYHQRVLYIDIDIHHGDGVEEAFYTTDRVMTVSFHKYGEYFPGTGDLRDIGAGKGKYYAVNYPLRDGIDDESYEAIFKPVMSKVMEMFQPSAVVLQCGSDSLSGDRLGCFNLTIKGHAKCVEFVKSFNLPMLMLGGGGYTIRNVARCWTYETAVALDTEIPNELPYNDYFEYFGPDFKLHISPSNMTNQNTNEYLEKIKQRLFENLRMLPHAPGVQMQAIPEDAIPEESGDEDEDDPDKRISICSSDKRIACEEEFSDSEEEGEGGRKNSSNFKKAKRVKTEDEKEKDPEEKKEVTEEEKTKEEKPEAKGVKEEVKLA

Row | SMILES | IC50 [1, 3] [nM] | HDAC6 selectivity (fold) ([2]; HDAC6 over HDAC1) | IC50 [2, 4] [nM] | IC50 [1, 5] [nM] | HDAC6 selectivity (fold) ([2]; HDAC1 IC50 / HDAC6 IC50) | IC50 [2, 6] [nM]
1 | Fc1cc(-c2nnc(C(F)F)o2)cnc1Cn1cc(-c2cccnc2)nn1 [Compound 18305, 2-(difluoromethyl)-5-(5-fluoro-6-((4-(pyridin-3-yl)-1H-1,2,3-triazol-1-yl)methyl)pyridin-3-yl)-1,3,4-oxadiazole] | > 50000 | 539 | 92.7 | – | – | –
2 | CC(C)N1Cc2ccc(-c3cn(Cc4ccc(-c5nnc(C(F)F)o5)cn4)nn3)cc2C1 [Compound 4541, 2-(difluoromethyl)-5-(6-((4-(2-isopropylisoindolin-5-yl)-1H-1,2,3-triazol-1-yl)methyl)pyridin-3-yl)-1,3,4-oxadiazole] | > 50000 | 1470 | 34 | – | – | –
3 | Fc1cc(-c2nnc(C(F)F)o2)ccc1Cn1cc(-c2cccc(C(F)F)c2)nn1 [Compound 4488, 2-(difluoromethyl)-5-(4-((4-(3-(difluoromethyl)phenyl)-1H-1,2,3-triazol-1-yl)methyl)-3-fluorophenyl)-1,3,4-oxadiazole] | – | – | – | > 50000 | 1059 | 47.2
4 | CN(C(=O)C(C)(C)C)c1cccc(-c2cn(Cc3ccc(-c4nnc(C(F)F)o4)cn3)nn2)c1 [Compound 3889, N-(3-(1-((5-(5-(difluoromethyl)-1,3,4-oxadiazol-2-yl)pyridin-2-yl)methyl)-1H-1,2,3-triazol-4-yl)phenyl)-N-methylpivalamide] | – | – | – | > 50000 | 1210 | 41.3
5 | CN1C[C@@H]2C[C@H]1CN2c1cccc(-c2cn(Cc3ccc(-c4nnc(C(F)F)o4)cc3F)nn2)c1 [Compound 4318, 2-(difluoromethyl)-5-(3-fluoro-4-((4-(3-((1S,4S)-5-methyl-2,5-diazabicyclo[2.2.1]heptan-2-yl)phenyl)-1H-1,2,3-triazol-1-yl)methyl)phenyl)-1,3,4-oxadiazole] | – | – | – | > 50000 | 1373 | 36.4
6 | FC(F)c1nnc(-c2ccc(Cn3cc(-c4ccc5c(c4)CNC5)nn3)nc2)o1 [Compound 4539, 2-(difluoromethyl)-5-(6-((4-(isoindolin-5-yl)-1H-1,2,3-triazol-1-yl)methyl)pyridin-3-yl)-1,3,4-oxadiazole] | > 50000 | 776 | 64.4 | – | – | –
7 | O=C(c1cccc(-c2cn(Cc3ccc(-c4nnc(C(F)F)o4)cn3)nn2)c1)N1CCOCC1 [Compound 3885, (3-(1-((5-(5-(difluoromethyl)-1,3,4-oxadiazol-2-yl)pyridin-2-yl)methyl)-1H-1,2,3-triazol-4-yl)phenyl)(morpholino)methanone] | – | – | – | > 50000 | 920 | 54.3
8 | Fc1cc(-c2nnc(C(F)F)o2)cnc1Cn1cc(-c2ccc(CN3CCCC3)s2)nn1 [Compound 18059, 2-(difluoromethyl)-5-(5-fluoro-6-((4-(5-(pyrrolidin-1-ylmethyl)thiophen-2-yl)-1H-1,2,3-triazol-1-yl)methyl)pyridin-3-yl)-1,3,4-oxadiazole] | > 50000 | 1295 | 38.6 | – | – | –
9 | Fc1cc(-c2nnc(C(F)F)o2)ccc1Cn1cc(-c2cccc(N3CCOCC3)c2)nn1 [Compound 4339, 4-(3-(1-(4-(5-(difluoromethyl)-1,3,4-oxadiazol-2-yl)-2-fluorobenzyl)-1H-1,2,3-triazol-4-yl)phenyl)morpholine] | – | – | – | > 50000 | 1623 | 30.8

Now from value to compound:

Row | IC50 [1, 3] [nM] | HDAC6 selectivity (fold) ([2]; HDAC6 over HDAC1) | IC50 [2, 4] [nM] | IC50 [1, 5] [nM] | HDAC6 selectivity (fold) ([2]; HDAC1 IC50 / HDAC6 IC50) | IC50 [2, 6] [nM] | SMILES
10 | – | – | – | > 50000 | 881 | 56.7 | CC(C)N1CCc2cc(-c3cn(Cc4ccc(-c5nnc(C(F)F)o5)cc4F)nn3)ccc2C1 [Compound 4360, 2-(difluoromethyl)-5-(3-fluoro-4-((4-(2-isopropyl-1,2,3,4-tetrahydroisoquinolin-6-yl)-1H-1,2,3-triazol-1-yl)methyl)phenyl)-1,3,4-oxadiazole]
11 | – | – | – | > 50000 | 379 | 132 | CN1CCC(F)(c2cn(Cc3ccc(-c4nnc(C(F)F)o4)cn3)nn2)CC1 [Compound 4005, 2-(difluoromethyl)-5-(6-((4-(4-fluoro-1-methylpiperidin-4-yl)-1H-1,2,3-triazol-1-yl)methyl)pyridin-3-yl)-1,3,4-oxadiazole]
12 | – | – | – | > 50000 | 1116 | 44.8 | Fc1cc(-c2nnc(C(F)F)o2)ccc1Cn1cc(-c2ccc(CN3CCOCC3)cc2)nn1 [Compound 4471, 4-(4-(1-(4-(5-(difluoromethyl)-1,3,4-oxadiazol-2-yl)-2-fluorobenzyl)-1H-1,2,3-triazol-4-yl)benzyl)morpholine]
13 | – | – | – | > 50000 | 1466 | 34.1 | CN1CCN(c2cccc(-c3cn(Cc4ccc(-c5nnc(C(F)F)o5)cc4)nn3)c2F)CC1 [Compound 4483, 2-(difluoromethyl)-5-(4-((4-(2-fluoro-3-(4-methylpiperazin-1-yl)phenyl)-1H-1,2,3-triazol-1-yl)methyl)phenyl)-1,3,4-oxadiazole]
14 | – | – | – | > 50000 | 880 | 56.8 | CC(C)N1CCc2cc(-c3cn(Cc4ccc(-c5nnc(C(F)F)o5)cn4)nn3)ccc2C1 [Compound 4053, 2-(difluoromethyl)-5-(6-((4-(2-isopropyl-1,2,3,4-tetrahydroisoquinolin-6-yl)-1H-1,2,3-triazol-1-yl)methyl)pyridin-3-yl)-1,3,4-oxadiazole]
15 | > 50000 | 588 | 84.9 | – | – | – | Fc1cc(-c2nnc(C(F)F)o2)ccc1Cn1cc(-c2cncs2)nn1 [Compound 17851, 2-(difluoromethyl)-5-(3-fluoro-4-((4-(thiazol-5-yl)-1H-1,2,3-triazol-1-yl)methyl)phenyl)-1,3,4-oxadiazole]
16 | > 50000 | 807 | 61.9 | – | – | – | Fc1cc(-c2nnc(C(F)F)o2)ccc1Cn1cc(-c2ccnc(N3CCN(C4CCC4)CC3)c2)nn1 [Compound 4640, 2-(4-((4-(2-(4-cyclobutylpiperazin-1-yl)pyridin-4-yl)-1H-1,2,3-triazol-1-yl)methyl)-3-fluorophenyl)-5-(difluoromethyl)-1,3,4-oxadiazole]
17 | – | – | – | > 50000 | 5882 | 8.5 | FC(F)c1nnc(-c2ccc(Cn3cc(-c4ccc5[nH]ncc5c4)nn3)nc2)o1 [Compound 4343, 2-(6-((4-(1H-indazol-5-yl)-1H-1,2,3-triazol-1-yl)methyl)pyridin-3-yl)-5-(difluoromethyl)-1,3,4-oxadiazole]
18 | > 50000 | 2100 | 23.8 | – | – | – | FC(F)c1nnc(-c2ccc(Cn3cc(-c4ccc(CNC5CCC5)cc4)nn3)cc2)o1 [Compound 4555, N-(4-(1-(4-(5-(difluoromethyl)-1,3,4-oxadiazol-2-yl)benzyl)-1H-1,2,3-triazol-4-yl)benzyl)cyclobutanamine]
19 | – | – | – | > 50000 | 6944 | 7.2 | Fc1cc(-c2nnc(C(F)F)o2)ccc1Cn1cc(-c2ccc(CN3CCC3)cc2)nn1 [Compound 4466, 2-(4-((4-(4-(azetidin-1-ylmethyl)phenyl)-1H-1,2,3-triazol-1-yl)methyl)-3-fluorophenyl)-5-(difluoromethyl)-1,3,4-oxadiazole]
20 | – | – | – | > 50000 | 1515 | 33 | CN1CCc2cc(-c3cn(Cc4ccc(-c5nnc(C(F)F)o5)cc4F)nn3)ccc2C1 [Compound 4358, 2-(difluoromethyl)-5-(3-fluoro-4-((4-(2-methyl-1,2,3,4-tetrahydroisoquinolin-6-yl)-1H-1,2,3-triazol-1-yl)methyl)phenyl)-1,3,4-oxadiazole]
